Assays:
[1] = target: T1, recombinant human Muscarinic M1 receptor (Homo sapiens, UniProt P11229); experiment: Allosteric potency EC50 for Muscarinic M1 receptor, CHO pCRE-Luc reporter assay with EC20 of acetylcholine; type: cell-based; conditions: CHO cells, in presence of EC20 of acetylcholine, 4 hours
T1 construct: expressed in transfected cells
T1 sequence (P11229 1-460): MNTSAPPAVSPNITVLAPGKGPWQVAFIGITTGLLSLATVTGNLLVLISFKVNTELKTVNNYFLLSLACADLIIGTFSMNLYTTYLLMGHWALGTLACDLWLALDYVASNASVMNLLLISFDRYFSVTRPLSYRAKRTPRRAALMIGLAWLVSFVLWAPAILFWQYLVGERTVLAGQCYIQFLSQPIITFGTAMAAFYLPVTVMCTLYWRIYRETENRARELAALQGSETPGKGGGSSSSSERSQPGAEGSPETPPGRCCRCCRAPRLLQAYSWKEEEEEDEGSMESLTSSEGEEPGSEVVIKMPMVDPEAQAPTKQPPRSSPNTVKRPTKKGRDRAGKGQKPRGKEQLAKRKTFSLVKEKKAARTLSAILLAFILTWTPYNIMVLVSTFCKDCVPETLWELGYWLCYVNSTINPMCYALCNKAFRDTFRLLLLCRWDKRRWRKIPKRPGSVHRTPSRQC
Procedure: Determination of Allosteric Potency EC50 Values for Muscarinic M1 Receptor:
A stable CHO cell line expressing recombinant human Muscarinic M1 receptor and pCRE-Luc reporter system was used for cell-based assay. The assay offers a non-radioactive based approach to determine binding of a compound to GPCRs. In this specific assay, the level of intracellular cyclic AMP which is modulated by activation or inhibition of the receptor is measured. The recombinant cells harbor luciferase reporter gene under the control of cAMP response element.
The above cells were grown in 96 well clear bottom white plates in Hams F12 medium containing 10% fetal bovine serum (FBS). Prior to the addition of compounds or standard agonist, cells were serum starved overnight. Increasing concentrations of test compounds were added along with EC20 of acetylcholine in OptiMEM medium to the cells. The incubation was continued at 37° C. in CO2 incubator for 4 hours. Medium was removed and cells were washed with phosphate buffered saline. The cells were lysed and luciferase activity was measured in a Luminometer. Luminescence counts in each concentrations of test item were normalized to the acetylcholine induced maximum response and the data was analyzed using Graphpad software. EC50 values of the compounds were defined as the concentration required in stimulating the luciferase activity by 50% in presence of EC20 of acetylcholine.

[2] = Rodent pharmacokinetic study; type: in vivo, Male Wistar rats; conditions: male, Wistar, rat, plasma; for bioavailability: oral 3 mg/kg vs i.v. 1 mg/kg
Procedure: Rodent Pharmacokinetic Study
Male Wistar rats (260±50 grams) were used as experimental animals. Animals were housed individually in polypropylene cage. Two days prior to study, male Wistar rats were anesthetized with isoflurane for surgical placement of jugular vein catheter. Rats were randomly divided for oral (3 mg/kg) and intravenous (i.v) (1 mg/kg) dosing (n=3/group) and fasted overnight before oral dosing (p.o.). However, rats allocated to intravenous (i.v.) dosing food and water was provided ad libitum.
At pre-determined point, blood was collected through jugular vein and replenished with an equivalent volume of normal saline. Collected blood was transferred into a labeled eppendorf tube containing 10 μL of heparin as an anticoagulant. Typically blood samples were collected at following time points: 0.08, 0.25, 0.5, 1, 2, 4, 6, 8, and 24 hours post dose. Blood was centrifuged at 4000 rpm for 10 minutes. Plasma was separated and stored frozen at −80° C. until analysis. The concentrations of the test compounds were quantified in plasma by qualified LC-MS/MS method using suitable extraction technique. The test compounds were quantified in the calibration range around 1-1000 ng/mL in plasma. Study samples were analyzed using calibration samples in the batch and quality control samples spread across the batch.
Pharmacokinetic parameters Cmax, AUCt, T1/2, clearance and bioavailability (F) were calculated by non-compartmental model using standard non-compartmental model by using Phoenix WinNonlin 6.0.2 or 6.0.3 version Software package.

[3] = Rodent brain penetration study; type: in vivo, Male Wistar rats; conditions: male, Wistar, brain and plasma, po; rat, 3 mg/kg, p.o. @ 1.0 hr, brain-plasma ratio; read-out: Single dose Rat Brain Penetration (Cb/Cp)
Procedure: Rodent Brain Penetration Study
Male Wistar rats (260±40 grams) were used as experimental animals. Three animals were housed in each cage. Animals were given water and food ad libitum throughout the experiment and maintained on a 12 hours light/dark cycle.
Brain penetration was determined in discrete manner in rats. One day prior to dosing day, male Wistar rats were acclimatized and randomly grouped according to their weight. At each time point (0.5, 1 and 2 hours) n=3 animals were used.
The test compounds were suitably preformulated and administered orally at (free base equivalent) 3 mg/kg. Blood samples were removed via cardiac puncture by using isoflurane anesthesia. The animals were sacrificed to collect brain tissue. Plasma was separated and brain samples were homogenized and stored frozen at −20° C. until analysis. The concentrations of the test compounds in plasma and brain were determined using LC-MS/MS method.
The test compounds were quantified in plasma and brain homogenate by qualified LC-MS/MS method using suitable extraction technique. The test compounds were quantified in the calibration range of 1-500 ng/mL in plasma and brain homogenate. Study samples were analyzed using calibration samples in the batch and quality control samples spread across the batch.

Male Wistar rats = experiment: Object recognition task model; type: in vivo; conditions: rat, p.o.; for Exploration time mean ± S.E.M, Familiar object / Exploration time mean ± S.E.M, Novel object: choice trial T2, 24 hours after T1
Procedure: Object Recognition Task Model
The cognition enhancing properties of compounds of this invention were estimated by using this model.
Male Wistar rats (8-10 weeks old) were used as experimental animals. Four animals were housed in each cage. Animals were kept on 20% food deprivation from a day prior to experimentation. Water was provided ad libitum throughout the experiment. Animals were maintained on a 12 hours light/dark cycle in temperature and humidity controlled room. The experiment was carried out in a circular or square arena made up of acrylic. Rats were habituated to individual arenas for up to 1 hour in the absence of any objects on day 1.
One group of 12 rats received vehicle and another set of animals received compound of the formula (I), before the familiar (T1) and choice (T2) trials. During the familiarization phase, (T1), the rats were placed individually in the arena for 3 minutes, in which two identical objects (a1 and a2) were positioned 10 cm from the wall. 24 hours after T1, trial for long-term memory test was performed. The same rats were placed in the same arena as they were placed in T1 trial. During the choice phase (T2) rats were allowed to explore the arena for 3 minutes in presence of a copy of familiar object (a3) and one novel object (b). During the T1 and T2 trial, explorations of each object (defined as sniffing, licking, chewing or having moving vibrissae whilst directing the nose towards the object at a distance of less than 1 cm) were recorded using stopwatch.
T1 is the total time spent exploring the familiar objects (a1+a2).
T2 is the total time spent exploring the familiar object and novel object (a3+b).
The object recognition test was performed as described by Ennaceur, A., Delacour, J., 1988, A new one-trial test for neurobiological studies of memory in rats˜Behavioural data, Behav. Brain Res., 31, 47-59.

Row | EC50 [1] | AUC(0-t) ([2]; iv, i.v. 1 mg/kg) | half-life ([2]; iv, i.v. 1 mg/kg) | clearance ([2]; iv, i.v. 1 mg/kg) | bioavailability [2] | AUC(0-t) ([2]; oral 3 mg/kg) | Cmax ([2]; oral 3 mg/kg) | half-life ([2]; oral 3 mg/kg) | Kp at 1 h [3] | SMILES | Inference (Male Wistar rats; 1 mg/kg) | Exploration time mean ± S.E.M, Familiar object (Male Wistar rats; 1 mg/kg) | Exploration time mean ± S.E.M, Novel object (Male Wistar rats; 1 mg/kg) | Inference (Male Wistar rats; 0.3 mg/kg) | Exploration time mean ± S.E.M, Familiar object (Male Wistar rats; 0.3 mg/kg) | Exploration time mean ± S.E.M, Novel object (Male Wistar rats; 0.3 mg/kg)
1 | 1.34 µM | 1380 ± 390 ng·h/mL | 2.7 ± 0.8 h | 12.2 ± 3.1 mL/min/kg | 39 ± 3% | 1610 ± 139 ng·h/mL | 402 ± 98 ng/mL | 3.4 ± 0.7 h | 1.52 ± 0.15 | COc1ccc(Cc2cc(C(=O)N[C@H]3CCCC[C@@H]3O)n3ncccc23)cc1 [Example 20, N-(cis-1S,2S-2-Hydroxycyclohexyl)-5-(4-methoxybenzyl)-pyrrolo[1,2-b]pyridazine-7-carboxamide] | Active | 10.31 ± 1.07 s | 14.92 ± 1.11 s | – | – | –
2 | 0.989 µM | 3230 ± 625 ng·h/mL | 3.7 ± 0.3 h | 5 ± 0.7 mL/min/kg | 66 ± 3% | 6390 ± 312 ng·h/mL | 793 ± 86 ng/mL | 4.4 ± 2.3 h | 0.13 ± 0.02 | Cn1cc(-c2ccc(Cc3cc(C(=O)N[C@H]4CCCC[C@@H]4O)n4ncccc34)c(F)c2)cn1 [Example 34, N-(cis-1S,2S-2-Hydroxycyclohexyl)-5-[2-fluoro-4-(1-methyl-1H-pyrazol-4-yl)-benzyl]-pyrrolo[1,2-b]pyridazine-7-carboxamide] | – | – | – | Active | 10.35 ± 1.75 s | 15.63 ± 3.23 s

Reference: US11234979B2, “Heteroaryl compounds as muscarinic M1 receptor positive allosteric modulators” (SUVEN LIFE SCIENCES LIMITED, priority 2017, dated 2022)
